Structures can show the parent of a compound that is named as a salt.

In assay [1] the target is T1, dopamine D2 receptor (Homo sapiens, UniProt P14416).
T1 construct: expressed in transfected cells
Kind of assay: Dopamine D2 receptor binding assay (displacement of [125I]-iodospiperone). The following applies: dopamine D2 receptor membranes, HEK293; read-out: KD of radioligand (saturation binding experiments). Here is the method:
(§1) 1. Preparation of Membranes by Ultrasonic Treatment and Differential Centrifugation
The pellets were stored at −80° C. until use. […] (Beckman Ultrazentrifuge XL 80).
(§2) 2. Receptor Binding Experiments
a) Dopamine D2 Receptor Binding Assay
Non-specific binding was defined with 1 μM haloperidol.

The target in assay [2] is T2, h-5-HT6 receptor (Homo sapiens, UniProt P50406).
T2 construct: expressed in transfected cells
T2 sequence (P50406 whole entry): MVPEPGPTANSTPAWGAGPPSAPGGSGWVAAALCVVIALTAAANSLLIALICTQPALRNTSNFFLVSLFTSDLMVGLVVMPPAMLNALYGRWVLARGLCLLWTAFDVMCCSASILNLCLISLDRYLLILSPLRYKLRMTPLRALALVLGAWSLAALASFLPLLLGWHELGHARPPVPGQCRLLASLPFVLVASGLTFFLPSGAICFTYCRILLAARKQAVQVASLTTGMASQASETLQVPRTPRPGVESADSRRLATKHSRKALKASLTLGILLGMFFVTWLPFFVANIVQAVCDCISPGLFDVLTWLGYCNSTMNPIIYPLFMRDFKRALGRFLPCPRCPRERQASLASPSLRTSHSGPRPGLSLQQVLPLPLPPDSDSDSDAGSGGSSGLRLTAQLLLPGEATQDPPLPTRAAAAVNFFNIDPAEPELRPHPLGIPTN
In words: 5-HT6 receptor binding assay (displacement of [3H]-LSD). The following applies: membranes of HEK293 cells expressing h-5-HT6 receptor, 1 nM [3H]-LSD; read-out: Ki(5HT6). Here is the method:
Displacement of radioligands binding to the following cloned human receptors
as §1
Cells from stable clonal cell lines expressing the corresponding receptor (5-HT6, α1-adrenergic, dopamine D2 or histamine H1 receptors) were washed with PBS (w/o Ca^++, Mg^++) and harvested in PBS with 0.02% EDTA. The cells were collected by centrifugation at 500 g for 10 min. at 4° C., washed with PBS and centrifuged (500 g, 10 min. 4° C.). The pellets were stored at −80° C. until use. F or membrane preparation, the thawed cell pellet was resuspended in ice-cold sucrose buffer (0.25 M sucrose, 10 mM Hepes (pH 7.4), 1 mM Phenylmethylsulfonyl fluoride (PMSF) in DMSO, 5 μg/ml Pepstatin-A, 3 mM EDTA, 0.025% Bacitracin) and homogenized with a Branson Sonifier W-250 (Settings: Timer 4; Output Control 3; Duty Cycle constant; 2 to 3 cycles). Cell disruption was checked with the aid of a microscope. Remaining unbroken cells were pelleted at 1.000 g for 10 min. at 4° C. The sucrose buffer supernatant was then centrifuged at 60.000 g for 1 h at 4° C. (Beckman Ultrazentrifuge XL 80). The pellet was resuspended in 30 ml ice-cold Tris buffer (20 mM TRIS (pH 7.4), 5 μg/ml Pepstatin A, 0.1 mM PMSF, 3 mM EDTA) by pipetting through a 10 ml serological pipet and centrifuged for 1 h at 4° C. at 60.000 g. A final resuspension was performed in a small volume of ice-cold Tris buffer (see above) by pressing through a serological pipet followed by ultrasonic treatment with a Branson Sonifier W-250 (Settings: Timer 1; Output Control 3; Duty Cycle constant; 1 cycle). Protein concentration was determined (BCA-Kit; Pierce) and aliquots stored at −80° C. or in liquid nitrogen for long-term storage.
as §2
All receptor binding experiments were carried out in the corresponding assay buffer in a total volume of 200 μl in the presence of various concentrations of test compound (10^−5 M to 10^−9 M, tenfold serial dilution, duplicate determinations). The assays were terminated by filtration on polyethylenimine (PEI 0.1% or 0.3%) presoaked Packard Unifilter Plates (GF/C or GF/B) with a Tomtec Machill U 96 well-plate harvester. After the plates had been dried for 2 h at 55° C. in a drying chamber scin tillation cocktail (BetaPlate Scint; PerkinElmer) was added. Radioactivity was measured in a Microbeta Trilux two hours after the addition of the scintillation mixture. Data derived from liquid scintillation counting were analysed by iterative non-linear regression analysis with the use of the Statistical Analysis System (SAS): a program similar to “LIGAND” as described by Munson and Rodbard (Analytical Biochemistry 107, 220-239 (1980).
a) 5-HT6 Receptor Binding Assay
HEK293 cells stably expressing the h-5-HT6 receptor (NCBI Reference Sequence XM 001435) were cultured in RPMI1640 medium supplemented with 25 mM HEPES, 10% fetal calf serum and 1-2 mM glutamine. The membrane preparation was performed as described in section 1. […] Non-specific binding was defined with 1 μM methiothepin. The binding reaction was carried out for 3.5 h at room temperature. During the incubation, the plates were shaken on a plate shaker at 100 rpm and terminated by filtration on Packard Unifilter GF/C (0.1% PEI) plates, followed by 2 wash cycles with ice-cold 50 mM Tris-HCl, 5 mM CaCl2.
Data derived from liquid scintillation counting were analyzed by iterative non-linear regression analysis with the use of the Statistical Analysis System (SAS): a program similar to “LIGAND” as described by Munson and Rodbard (Anal. Biochem. 1980, 107, 220-239). Fitting was performed according to formulae described by Feldman (Anal. Biochem. 1972, 48, 317-338). IC50, nH and Ki values were expressed as geometrical mean.

T1 sequence (P14416 whole entry): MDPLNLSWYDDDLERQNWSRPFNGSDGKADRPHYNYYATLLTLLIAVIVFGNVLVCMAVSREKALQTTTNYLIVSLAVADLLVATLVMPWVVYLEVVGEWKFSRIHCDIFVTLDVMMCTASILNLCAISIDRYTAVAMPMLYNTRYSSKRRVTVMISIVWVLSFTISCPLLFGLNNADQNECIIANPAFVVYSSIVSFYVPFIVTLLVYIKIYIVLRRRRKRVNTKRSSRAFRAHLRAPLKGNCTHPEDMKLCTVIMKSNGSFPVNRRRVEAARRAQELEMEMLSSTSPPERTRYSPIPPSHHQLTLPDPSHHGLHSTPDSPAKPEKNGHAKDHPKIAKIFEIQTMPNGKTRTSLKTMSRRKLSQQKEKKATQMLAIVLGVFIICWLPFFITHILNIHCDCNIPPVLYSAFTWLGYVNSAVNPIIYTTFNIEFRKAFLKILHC

With iodospiperone [[^125I]-iodospiperone], in assay [1], the Kd turned out to be 0.22 nM.
As for `COc1ccc(NS(=O)(=O)c2cc(OC(F)F)ccc2OC)cc1N1CCNCC1` [Example 8, 5-Difluoromethoxy-2-methoxy-N-(4-methoxy-3-piperazin-1-yl-phenyl)-benzene-sulfonamide Hydrochloride], the Ki in assay [2] was < 10 nM.
On to `COc1ccc(NS(=O)(=O)c2cccc(OC(F)F)c2)cc1N1CCN(C)CC1` [Example 25, 3-Difluoromethoxy-N-[4-methoxy-3-(4-methyl-piperazin-1-yl)-phenyl]-benzenesulfonamide], for which the Ki in assay [2] is < 10 nM.
For the compound `COc1c(F)cc(NS(=O)(=O)c2cccc3c2OC(F)(F)O3)cc1N1CCNCC1` [Example 10, 2,2-Difluoro-benzo[1,3]dioxole-4-sulfonic acid (3-fluoro-4-methoxy-5-piperazin-1-yl-phenyl)-amide Hydrochloride], the Ki in assay [2] was < 10 nM.

For the origin of these results see patent US7790727B2, “Benzenesulfonanilide compounds suitable for treating disorders that respond to modulation of the serotonin 5-HT6 receptor” (Abbott GmbH & Co. KG, priority 2007, dated 2010).
